In paper PMC6804466 (Acta Pharmaceutica Sinica. B, 2019):
Marks after values point to notes of the source that are not given here.

Assays:
[1] = Pharmacokinetics of Imp in rabbits; assay type: in vivo; settings: male, New Zealand white, rabbit, iv, 200 mg/kg
[2] = cited from earlier work
hOAT1 = target: T1, hOAT1 (Homo sapiens, UniProt Q4U2R8); assay: Imp uptake by hOAT1-HEK293 cells; assay type: cell-based; settings: 100 μmol/L, 10 min, with or without Prb 200 μmol/L
T1 sequence (Q4U2R8 1-563): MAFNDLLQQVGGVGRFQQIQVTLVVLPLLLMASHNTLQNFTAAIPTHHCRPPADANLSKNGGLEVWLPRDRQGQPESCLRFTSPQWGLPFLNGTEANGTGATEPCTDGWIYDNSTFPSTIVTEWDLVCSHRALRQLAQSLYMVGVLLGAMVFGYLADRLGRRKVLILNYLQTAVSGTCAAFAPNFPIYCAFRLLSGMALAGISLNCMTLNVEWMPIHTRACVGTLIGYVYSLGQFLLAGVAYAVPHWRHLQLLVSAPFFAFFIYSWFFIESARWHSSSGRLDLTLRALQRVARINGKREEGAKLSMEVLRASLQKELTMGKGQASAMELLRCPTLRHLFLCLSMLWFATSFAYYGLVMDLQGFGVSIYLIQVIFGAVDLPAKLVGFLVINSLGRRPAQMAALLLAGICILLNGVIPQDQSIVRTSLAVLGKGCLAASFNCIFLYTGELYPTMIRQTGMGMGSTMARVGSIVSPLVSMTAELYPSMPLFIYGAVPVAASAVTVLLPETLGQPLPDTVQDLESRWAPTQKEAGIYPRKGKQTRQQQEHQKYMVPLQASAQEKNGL

hOAT3 = target: T2, hOAT3 (Homo sapiens, UniProt Q8TCC7); settings: 100 μmol/L, 10 min, with or without Prb 200 μmol/L
T2 sequence (Q8TCC7 1-542): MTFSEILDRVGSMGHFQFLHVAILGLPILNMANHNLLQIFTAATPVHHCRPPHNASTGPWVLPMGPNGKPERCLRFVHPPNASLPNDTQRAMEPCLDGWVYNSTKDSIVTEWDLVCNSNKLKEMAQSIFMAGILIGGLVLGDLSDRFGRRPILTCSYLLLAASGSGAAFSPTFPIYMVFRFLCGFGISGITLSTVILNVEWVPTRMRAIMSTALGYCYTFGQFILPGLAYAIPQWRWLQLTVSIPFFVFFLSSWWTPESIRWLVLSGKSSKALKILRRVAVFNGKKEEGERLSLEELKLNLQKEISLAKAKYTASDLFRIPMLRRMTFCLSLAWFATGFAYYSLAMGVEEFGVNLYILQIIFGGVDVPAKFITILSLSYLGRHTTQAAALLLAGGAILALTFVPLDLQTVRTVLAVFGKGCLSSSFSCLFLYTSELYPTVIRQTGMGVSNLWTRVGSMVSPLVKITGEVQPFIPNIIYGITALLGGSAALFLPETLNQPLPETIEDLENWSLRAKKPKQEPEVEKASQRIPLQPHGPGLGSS

[3] = Imp-induced nephrotoxicity in rabbits; assay type: in vivo, rabbit; settings: for Imp-induced acute structural damage of rabbit kidney after coadministration: Imp 200 mg/kg i.v. plus Cil 200 mg/kg or Prb 50 mg/kg
Mock-HEK293 cells = assay: Cytotoxicity of Imp, CCK-8 assay, Mock-HEK293 cells; assay type: cell-based, human; settings: 24 h; for Effect of Cil or Prb on the survival rate of Mock cells treated with Imp: Imp 0–1 mmol/L plus the named inhibitor 200 μmol/L
hOAT3-HEK293 cells = assay: Cytotoxicity of Imp, CCK-8 assay, hOAT3-HEK293 cells; assay type: cell-based, human; settings: 24 h; for Survival rate of hOAT3-HEK293 cells with Imp in the presence of Cil or Prb: Imp 1 mmol/L plus the named inhibitor 200 μmol/L
hOAT1-HEK293 cells = assay: Cytotoxicity of Imp, CCK-8 assay, hOAT1-HEK293 cells; assay type: cell-based, human; settings: Imp alone 1 mmol/L, 24 h
raOATs = assay: Imp uptake by rabbit primary proximal tubule cells; assay type: cell-based; settings: Imp 100 μmol/L, 10 min, vs si-Control cells
[4] = calculated from maximum plasma concentration and plasma protein binding
[5] = human; cited from earlier work
[6] = Imp 200 mg/kg i.v. with or without Cil 200 mg/kg or Prb 50 mg/kg, 48 h

## C[C@@H](O)[C@H]1C(=O)N2C(C(=O)O)=C(SCCN=CN)C[C@H]12 [Imp, Imipenem]
[1]; plasma
  AUC(0-t): 289 ± 48.7 µg·h/mL
  clearance: 11.9 mL/min/kg
  half-life: 58 ± 4.2 min
[1]; urine
  CL renal: 2.78 mL/min/kg
[2]
  Renal excretion of Imp: ~70%
hOAT1
  Substrate of hOAT1 (uptake vs Mock cells, inhibited by Prb): substrates of hOAT1 and hOAT3
hOAT3
  Substrate of hOAT3 (uptake vs Mock cells, inhibited by Prb): substrates of hOAT1 and hOAT3
[3]; Imp 200 mg/kg i.v. alone, 48 h
  Renal histology (HE and PAS staining): severe renal damage
[3]; Imp 200 mg/kg i.v. with or without Cil 200 mg/kg or Prb 50 mg/kg, 0 h (baseline)
  Body weight 0 h: 2.87 ± 0.24 kg
[3]; [6]
  Body weight 48 h: 2.69 ± 0.24 kg
  Kidney weight: 13.2 ± 1.5 g
  Kidney/body weight ratio: 4.81 ± 0.29 ^a g/kg
Mock-HEK293 cells; Imp alone 1 mmol/L
  Survival rate of Mock-HEK293 cells: 85.8%
hOAT3-HEK293 cells; Imp alone 1 mmol/L
  Survival rate of hOAT3-HEK293 cells: 27.2%
hOAT1-HEK293 cells
  Survival rate of hOAT1-HEK293 cells: 47.5%
raOATs
  Increase in intracellular level of Imp in rPTCs transfected with si-DHP-I: 30%

## CC1(C)C[C@@H]1C(=O)N/C(=C\CCCCSC[C@H](N)C(=O)O)C(=O)O [Cil, cilastatin]
[4]
  Peak level of free Cil in human: about 140 μmol/L
[5]
  Plasma protein binding of Cil: approximately 40%
[2]; human
  Maximum clinical plasma concentration of Cil: 88 µg/mL
[3]; 48 h
  Imp-induced acute structural damage of rabbit kidney after coadministration: significantly reduced
Mock-HEK293 cells
  Effect of Cil or Prb on the survival rate of Mock cells treated with Imp: little effect
hOAT3-HEK293 cells
  Survival rate of hOAT3-HEK293 cells with Imp in the presence of Cil or Prb: 66.3%

## CCCN(CCC)S(=O)(=O)c1ccc(C(=O)O)cc1 [Prb, probenecid]
[3]; 48 h
  Imp-induced acute structural damage of rabbit kidney after coadministration: significantly reduced
Mock-HEK293 cells
  Effect of Cil or Prb on the survival rate of Mock cells treated with Imp: little effect
hOAT3-HEK293 cells
  Survival rate of hOAT3-HEK293 cells with Imp in the presence of Cil or Prb: 76.2%
